Measured values published in US20250163057A1, “DCN-1 MODULATING COMPOUNDS AND METHODS OF USE THEREOF” (Cellarity, Inc., priority 2023, published 2025).
Where two headings read alike, the source gives them in different places.

Tests used:
[1] = system: Cullin-3 (CUL3) neddylation; assay: AlphaLISA assay for Cullin-3 (CUL3) neddylation in TF 1 cells; assay type: cell-based; settings: 3 hours treatment; for IC50: Homo sapiens
Outline: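 Neddylated CUL3 was quantified by AlphaLISA in lysates of TF 1 cells exposed for 3 h to test compound in IMDM without supplements. Percent inhibition set between vehicle and 1 μM DI-1548 positive control; IC50 derived by Hill-equation fitting of dose-response curves.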

[2] = target: DCN1 (DCUND1) protein PONY domain (Homo sapiens (Human), UniProt Q96GG9); assay: TR-FRET assay, DCN1 binding with FAM-labeled probe
Chain of DCN1 (DCUND1) protein PONY domain (Q96GG9 60-248): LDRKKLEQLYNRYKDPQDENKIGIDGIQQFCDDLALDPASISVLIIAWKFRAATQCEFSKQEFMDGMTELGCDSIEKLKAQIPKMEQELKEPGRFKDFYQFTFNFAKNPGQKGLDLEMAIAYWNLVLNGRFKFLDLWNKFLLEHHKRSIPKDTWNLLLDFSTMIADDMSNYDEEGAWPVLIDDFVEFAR
Outline: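 Biotinylated DCN1 PONY domain, labeled with streptavidin-Tb, was competed against a FAM-labeled non-covalent DCN1 inhibitor probe in buffer with TritonX and 200 mM NaCl. Conditions were 5 nM DCN1 with 20 nM FAM-probe, or 0.31 nM DCN1 with 100 nM FAM-plus 800 nM unlabeled probe. The TR-FRET ratio was read at 1, 5 and 24 h (0.1% DMSO).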

[3] = 24 hr after treatment with compound, read-out: TR FRET IC50 24 hr
[4] = TR FRET IC50 1 hr (nM), 1 hr after treatment with compound
[5] = read-out: TR FRET IC50 1 hr, 1 hr after treatment with compound

SMILES	IC50 ([1]; TF-1, 3 h)	IC50 [2, 3]	IC50 [2, 4]	IC50 [2, 5]	IC50 [1]	Neddylation IC50 (nM) [1]
CCN1C(=O)[C@@H](NC(=O)c2cccc(C(F)(F)F)c2)[C@@H](c2ccc(F)cc2)c2c(CNC/C=C/C(=O)OC(C)(C)C)nn(-c3ccccc3)c21 [Compound I-635]	100 to 1000 nM	≤ 200 nM	1000 to 3000 nM	–	–	–
CCN1C(=O)[C@@H](NC(=O)c2cccc(C(F)(F)F)c2)[C@@H](c2ccc(F)cc2)c2c(CN(C)C/C=C/C(=O)N(C)C)nn(-c3ccccc3)c21 [Compound I-638]	> 1000 nM	≤ 200 nM	–	≤ 200 nM	–	–
CCN1C(=O)[C@@H](NC(=O)c2nccc(C(F)(F)F)n2)[C@H](c2ccc(F)cc2)c2c(CC(=O)N(C)CC#N)nn(-c3ccccc3)c21 [Compound I-640, N-((4R,5S)-3-(2-((cyanomethyl)(methyl)amino)-2-oxoethyl)-7-ethyl-4-(4-fluorophenyl)-6-oxo-1-phenyl-4,5,6,7-tetrahydro-1H-pyrazolo[3,4-b]pyridin-5-yl)-4-(trifluoromethyl)pyrimidine-2-carboxamide]	100 to 1000 nM	1000 to 3000 nM	1000 to 3000 nM	–	–	–
CCN1C(=O)[C@@H](NC(=O)c2cccc(C(F)(F)F)c2)[C@H](c2ccc(F)cc2)c2c(CNC(=O)C(C)C#N)nn(-c3ccccc3)c21 (stereo partly drawn) [Compound I-641]	> 1000 nM	200 to 1000 nM	200 to 1000 nM	–	–	–
CCN1C(=O)[C@H](NC(=O)c2cccc(C(F)(F)F)c2)C(C2CC2)c2c(C(=O)N3CCC[C@H]3C#N)nn(-c3ccccc3)c21 (stereo partly drawn) [Compound I-642]	> 1000 nM	1000 to 3000 nM	1000 to 3000 nM	–	–	–
CCN1C(=O)[C@@H](NC(=O)c2cccc(C(F)(F)F)c2)[C@@H](c2ccc(F)cc2)c2c(CN(C#N)CCCN(C)C3COC3)nn(-c3ccccc3)c21 [Compound I-646]	≤ 100 nM	≤ 200 nM	–	≤ 200 nM	–	–
CCN1C(=O)[C@H](NC(=O)c2cccc(C(F)(F)F)c2)[C@H](c2ccc(F)cc2)c2c(C(=O)N3CCC[C@H]3C#N)nn(-c3cccc(OCCN4CC5(COC5)C4)c3)c21 [Compound I-647]	> 1000 nM	1000 to 3000 nM	1000 to 3000 nM	–	–	–
CCN1C(=O)[C@H](NC(=O)c2cccc(C(F)(F)F)c2)[C@H](c2ccc(F)cc2)c2c(C(=O)N3CCC[C@H]3C#N)nn(-c3cccc(OCCN4CCN(C5COC5)CC4)c3)c21 [Compound I-648]	> 1000 nM	1000 to 3000 nM	1000 to 3000 nM	–	–	–
CCN1C(=O)[C@@H](NC(=O)c2cccc(C(F)(F)F)c2)[C@@H](c2ccc(F)cc2)c2c(C(=O)N(C)[C@@H](C#N)CCN(C)C3COC3)nn(C3CCOCC3)c21 [Compound I-654]	≤ 100 nM	≤ 200 nM	–	≤ 200 nM	–	–
CCN1C(=O)[C@@H](NC(=O)c2csc3c2CCC(C)C3)[C@@H](C2CC2)c2c(C(=O)N3[C@H](C#N)C[C@H]4C[C@H]43)nn(C3CCOCC3)c21 (stereo partly drawn) [Compound I-656]	–	≤ 200 nM	–	≤ 200 nM	≤ 100 nM	–
CCN1C(=O)[C@@H](NC(=O)c2cccc(C(F)(F)F)c2)[C@@H](C2CC2)c2c(C(=O)N3CCOC[C@@H]3C#N)nn(-c3ccccc3)c21 [Compound I-658]	> 1000 nM	200 to 1000 nM	1000 to 3000 nM	–	–	–
CCN1C(=O)[C@@H](NC(=O)c2cccc(C(F)(F)F)c2)[C@@H](C2CC2)c2c(C(=O)N3CCS(=O)(=O)C[C@H]3C#N)nn(-c3ccccc3)c21 [Compound I-659, N-((4S,5S)-3-((R)-3-cyano-1,1-dioxidothiomorpholine-4-carbonyl)-4-cyclopropyl-7-ethyl-6-oxo-1-phenyl-4,5,6,7-tetrahydro-1H-pyrazolo[3,4-b]pyridin-5-yl)-3-(trifluoromethyl)benzamide]	≤ 100 nM	≤ 200 nM	–	≤ 200 nM	–	–
CCN1C(=O)[C@@H](NC(=O)C23CC(C(F)F)(C2)C3)[C@@H](C2CC2)c2c(C(=O)N3[C@H](C#N)C[C@H]4C[C@H]43)nn(C3CCOCC3)c21 [Compound I-662]	> 1000 nM	1000 to 3000 nM	1000 to 3000 nM	–	–	–
CCN1C(=O)[C@@H](NC(=O)c2cccc(C(F)(F)F)c2)[C@@H](C2CC2)c2c(C(=O)N(C)[C@@H](C#N)CCN(C)C3COC3)nn(C3CCOCC3)c21 [Compound I-664]	100 to 1000 nM	200 to 1000 nM	200 to 1000 nM	–	–	–
CCN1C(=O)[C@H](NC(=O)c2cccc(C(F)(F)F)c2)[C@H](C2CC2)c2c(C(=O)N3CCC[C@H]3C#N)nn(C3CCOCC3)c21 [Compound I-666]	> 1000 nM	1000 to 3000 nM	1000 to 3000 nM	–	–	–
CCN1C(=O)[C@@H](NC(=O)c2ccc3cc[nH]c3c2)[C@@H](C2CC2)c2c(C(=O)N3[C@H](C#N)C[C@H]4C[C@H]43)nn(C3CCOCC3)c21 [Compound I-667]	≤ 100 nM	≤ 200 nM	200 to 1000 nM	–	–	–
CCN1C(=O)[C@@H](NC(=O)c2ccc3nonc3c2)[C@@H](C2CC2)c2c(C(=O)N3[C@H](C#N)C[C@H]4C[C@H]43)nn(C3CCOCC3)c21 [Compound I-668]	100 to 1000 nM	1000 to 3000 nM	1000 to 3000 nM	–	–	–
CCN1C(=O)[C@@H](NC(=O)c2ccc3ncsc3c2)[C@@H](C2CC2)c2c(C(=O)N3[C@H](C#N)C[C@H]4C[C@H]43)nn(C3CCOCC3)c21 [Compound I-669]	100 to 1000 nM	200 to 1000 nM	1000 to 3000 nM	–	–	–
CCN1C(=O)[C@H](NC(=O)c2cccc(C(F)(F)F)c2)[C@H](C2CC2)c2c(C(=O)N(C)C(C)C#N)nn(-c3ccccc3)c21 (stereo partly drawn) [Compound I-676]	> 1000 nM	1000 to 3000 nM	1000 to 3000 nM	–	–	–
CCN1C(=O)[C@H](NC(=O)c2cccc(C(F)(F)F)c2)[C@H](c2ccc(F)cc2)c2c(C(=O)N3CCC[C@H]3C#N)nn(-c3cccc(OCCCN4CCN(C5COC5)CC4)c3)c21 [Compound I-681]	> 1000 nM	1000 to 3000 nM	1000 to 3000 nM	–	–	–
CCN1C(=O)[C@@H](NC(=O)c2cccc(C(F)(F)F)c2)[C@@H](C2CC2)c2c(C(=O)N(CC#N)C3CC3)nn(C3CCOCC3)c21 [Compound I-682]	≤ 100 nM	≤ 200 nM	200 to 1000 nM	–	–	–
CCN1C(=O)[C@@H](NC(=O)c2cccc(C(F)(F)F)c2)[C@@H](C2CC2)c2c(C(=O)N(CC#N)CCCN(C)C)nn(C3CCOCC3)c21 [Compound I-683]	≤ 100 nM	≤ 200 nM	200 to 1000 nM	–	–	–
CCN1C(=O)[C@@H](NC(=O)c2ccn(C(F)(F)F)n2)[C@@H](c2ccc(F)cc2)c2c(C(=O)N3CCN(C)CC3C#N)nn(-c3ccccc3)c21 (stereo partly drawn) [Compound I-684, N-((4S,5S)-3-(2-cyano-4-methylpiperazine-1-carbonyl)-7-ethyl-4-(4-fluorophenyl)-6-oxo-1-phenyl-4,5,6,7-tetrahydro-1H-pyrazolo[3,4-b]pyridin-5-yl)-1-(trifluoromethyl)-1H-pyrazole-3-carboxamide]	≤ 100 nM	≤ 200 nM	–	≤ 200 nM	–	–
CCN1C(=O)[C@@H](NC(=O)c2cccc(C(F)(F)F)c2)[C@@H](c2ccc(F)cc2)c2c(COCC#N)nn(-c3ccccc3)c21 [Compound I-685]	100 to 1000 nM	≤ 200 nM	–	≤ 200 nM	–	–
CCN1C(=O)[C@@H](NC(=O)c2cccc(C(F)(F)F)c2)[C@@H](C2CC2)c2c(C(=O)N3CCC[C@H]3C#N)nn(-c3ccccc3)c21 [Compound I-686]	–	≤ 200 nM	1000 to 3000 nM	–	–	+ +
